Minimal effective dose, IC50 and acute toxicity data for four compounds are collected here from patent US4992437A, “Thienodiazepine compounds and their pharmaceutical use” (Yoshitomi Pharmaceutical Industries, Ltd., priority 1987, dated 1991).

For data set [1], the system named is CCK-8. Nature of the data set: Effects on gastric excreting capability (Gastric emptying test), CCK-8 challenge. The data set is classed as in vivo, male ddY mice. As for the experimental part: At 5 minutes' lapse thereafter, 0.1 ml of a 1.5% aqueous solution of methyl cellulose containing 0.05% phenolred (Sigma) was orally administered. After 15 minutes, the stomach was extracted and the gastric contents were mixed with a 10% aqueous solution of trichloroacetic acid. After the removal of the proteins, the residue was centrifuged at 3000 rpm for 10 minutes. To the supernatant was added a 1N solution of sodium hydroxide and the mixture was again centrifuged. Thereafter, OD560 value of the supernatant was measured by the spectrophotometer (Hitachi 200-10 type) to estimate the minimum effective dose (MED).

The target in data set [2] is T1, CCK receptor (pancreas) (Canis lupus familiaris, UniProt Q5D0K2).
T1 construct: from tissue; host or cells: dog pancreas membranes (whole pancreas, homogenized and centrifuged)
T1 sequence (Q5D0K2 1-428): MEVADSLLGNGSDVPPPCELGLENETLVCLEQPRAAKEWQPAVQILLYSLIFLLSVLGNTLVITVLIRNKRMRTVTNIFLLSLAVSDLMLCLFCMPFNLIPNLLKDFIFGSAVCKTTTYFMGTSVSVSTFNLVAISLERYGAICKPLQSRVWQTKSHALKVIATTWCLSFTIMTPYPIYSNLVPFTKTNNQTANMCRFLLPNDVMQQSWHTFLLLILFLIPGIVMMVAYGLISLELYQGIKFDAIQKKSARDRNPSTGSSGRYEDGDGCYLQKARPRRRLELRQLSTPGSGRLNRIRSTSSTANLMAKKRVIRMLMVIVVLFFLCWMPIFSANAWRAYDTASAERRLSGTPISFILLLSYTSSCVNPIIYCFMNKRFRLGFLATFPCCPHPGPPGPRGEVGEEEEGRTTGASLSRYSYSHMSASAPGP
Nature of the data set: CCK receptor-binding, pancreas (125I-CCK-8). Also noted: species or system male mongrel adult dog. As to the method:
The entire pancreas of a male mongrel adult dog was extracted and the fat tissues thereof were removed. The residual portion was homogenized in 50 mM tris hydrochloride (pH 7.5) (Blinkman·Polytron PT20). After the filtration with nylon cloth (120 mesh) followed by centrifugation (50,000×g, for 12 minutes), the obtained sediment was homogenized in a tris buffer solution in the same manner as mentioned above and the homogenate was centrifuged. The obtained sediment was suspended in a buffer solution for binding assay (5 mM magnesium chloride, chloride, 5 mM dithiothreitol, 2 mg/ml bovine serum albumin, 0.1 mg/ml bacitracin, and 50 mM tris hydrochloride, pH 7.2), containing 0.14 mg/ml trypsin-inhibitor (soy bean), and the suspension was used as the receptor source.

The target in data set [3] is T2, CCK receptor (brain).
T2 construct: Brain; from tissue
T2 sequence (P32239 whole entry): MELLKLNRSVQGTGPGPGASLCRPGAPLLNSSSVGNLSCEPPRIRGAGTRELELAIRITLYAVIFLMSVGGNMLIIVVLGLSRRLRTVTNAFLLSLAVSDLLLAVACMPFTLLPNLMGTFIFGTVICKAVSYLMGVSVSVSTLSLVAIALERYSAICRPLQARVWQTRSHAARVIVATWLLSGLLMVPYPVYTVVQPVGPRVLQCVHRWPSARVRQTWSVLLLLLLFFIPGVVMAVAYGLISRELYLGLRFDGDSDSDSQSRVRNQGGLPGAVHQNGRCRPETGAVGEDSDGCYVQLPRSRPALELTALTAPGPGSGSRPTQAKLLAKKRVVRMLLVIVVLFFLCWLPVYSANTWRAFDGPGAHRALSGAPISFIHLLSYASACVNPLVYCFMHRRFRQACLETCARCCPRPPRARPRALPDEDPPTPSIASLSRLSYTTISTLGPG
Nature of the data set: CCK receptor-binding, brain (125I-CCK-8).

Data set [4] in a line: Acute toxicity test. In kind it is in vivo. The note with it: oral; 6 male mice; observed for consecutive 5 days. The text has this: The acute toxicity of the compounds of the present invention was studied with the use of 6 male mice.
Setting [5] is: pancreas membranes of dog, 125I-CCK-8, 20° C., 30 minutes, read-out: CCK binding, IC50 Pancreas.

Read-outs that look alike come from different tables or passages of the source.

For the compound `CN1C(=O)C(NC(=O)c2cc3ccccc3[nH]2)N=C(c2ccccc2)c2ccccc21` [Example L-364718, N-(2,3-Dihydro-1-methyl-2-oxo-5-phenyl-1H-1,4-benzodiazepin-3-yl)-1H-indole-2-carboxamide, reference compound], the minimal effective dose at 0.03 mg/kg in data set [1] (Mus musculus, po, 25 min, read-out: Gastric Emptying MED (minimum effective dose)) lay within 0.1 to 0.3 mg/kg.
A word on the IC50: it is the concentration needed to halve the response being measured. As for “CCK-8: CCK-8 which consists of the 8 amino acids at the C terminus of CCK”, the IC50 in data set [2] (setting [5]) amounted to 0.6 nM.
Regarding `CCc1cc2c(s1)-n1c(C)nnc1C(NC(=O)c1cc3ccccc3[nH]1)N=C2c1ccccc1Cl` (stereo not shown) [Compound A, 4-(2-Chlorophenyl)-2-ethyl-6-(2-indolecarboxamido)-9-methyl-6H-thieno[3,2-f][1,2,4]triazolo[4,3-a][1,4]diazepine], in data set [1] (Mus musculus, po, 25 min; read-out: Gastric Emptying MED (minimum effective dose)), the minimal effective dose at 0.03 mg/kg is 0.3 to 1 mg/kg. The 50% inhibitory concentration (IC50) in data set [2] turned out to be 0.6 nM; in data set [3], 1.8 nM. In data set [4], the acute toxicity entry is “low toxicity”.
Turning to CCK-4, the IC50 in data set [2] (setting [5]) was determined as 800 nM.
